Source: ChEMBL document CHEMBL1147292, “The structure of ulithiacyclamide B. Antitumor evaluation of cyclic peptides and macrolides from Lissoclinum patella” (J Nat Prod, 1989)
In brackets after ≈: the same amount, converted by molar mass.

Columns and labels:
L1210 [1] = experiment: Cytotoxicity against mouse L1210 cells at 10 ug/disk by corbett disk diffusion assay; type: functional
[2] = Cytotoxicity against human H116 cells at 10 ug/disk by corbett disk diffusion assay; type: functional
MC-38 [3] = experiment: Cytotoxicity against mouse C38 cells at 10 ug/disk by corbett disk diffusion assay; type: functional
KB = experiment: Cytotoxicity against human KB cells; type: functional, cell-based
MC-38 [4] = experiment: Cytotoxicity against mouse C38 cells at 100 ug/disk by corbett disk diffusion assay; type: functional
L1210 [5] = experiment: Cytotoxicity against mouse L1210 cells at 100 ug/disk by corbett disk diffusion assay; type: functional
[6] = Cytotoxicity against human H116 cells at 100 ug/disk by corbett disk diffusion assay; type: functional
MC-38 [7] = experiment: Cytotoxicity against mouse C38 cells at 200 ug/disk by corbett disk diffusion assay; type: functional
[8] = Cytotoxicity against human H116 cells at 200 ug/disk by corbett disk diffusion assay; type: functional
L1210 [9] = experiment: Cytotoxicity against mouse L1210 cells at 200 ug/disk by corbett disk diffusion assay; type: functional
MC-38 [10] = experiment: Cytotoxicity against mouse C38 cells at 5 ug/disk by corbett disk diffusion assay; type: functional
[11] = Cytotoxicity against human H116 cells at 5 ug/disk by corbett disk diffusion assay; type: functional
L1210 [12] = experiment: Cytotoxicity against mouse L1210 cells at 5 ug/disk by corbett disk diffusion assay; type: functional
L1210 [13] = experiment: Cytotoxicity against mouse L1210 cells at 1.5 ug/disk by corbett disk diffusion assay; type: functional
MC-38 [14] = experiment: Cytotoxicity against mouse C38 cells at 1.5 ug/disk by corbett disk diffusion assay; type: functional
L1210 [15] = experiment: Cytotoxicity against mouse L1210 cells at 0.15 ug/disk by corbett disk diffusion assay; type: functional
[16] = Cytotoxicity against mouse Panc03 cells at 1.5 ug/disk by corbett disk diffusion assay; type: functional

CC(C)C[C@H]1NC(=O)[C@H]2N=C(O[C@@H]2C)[C@H]2CSSC[C@@H](NC(=O)c3csc1n3)C1=N[C@H](C(=O)N[C@H](Cc3ccccc3)c3nc(cs3)C(=O)N2)[C@@H](C)O1 [ULITHIACYCLAMIDE B]
Activity (L1210 [1]): 270 Zone units | Activity [2]: 280 Zone units | Activity (MC-38 [3]): 290 Zone units | IC50 (KB): 0.017 mg/L (≈ 0.0213 µM)

CC[C@H](C)[C@@H]1NC(=O)c2csc(n2)[C@@H](C)NC(=O)[C@H]2N=C(O[C@@H]2C)[C@H](CC(C)C)NC(=O)c2csc(n2)[C@@H](Cc2ccccc2)NC(=O)[C@H]2N=C1O[C@@H]2C [PATELLAMIDE B]
Activity (MC-38 [4]): 150 Zone units | Activity (L1210 [5]): 50 Zone units | Activity [6]: 0 Zone units | IC50 (KB): > 4 mg/L

CC[C@H](C)[C@@H]1NC(=O)c2csc(n2)[C@@H](C)NC(=O)[C@H]2N=C(O[C@@H]2C)[C@H](C(C)C)NC(=O)c2csc(n2)[C@@H](Cc2ccccc2)NC(=O)[C@H]2N=C1O[C@@H]2C [PATELLAMIDE C]
Activity (MC-38 [7]): 170 Zone units | Activity [8]: 0 Zone units | Activity (L1210 [9]): 260 Zone units | IC50 (KB): 6 mg/L (≈ 7.86 µM)

CCC(C)OC(=O)C1(C)CCC(C)CC(O)C(C)C(=O)C(C)/C=C\CC(C)C(O)C(O)C(OC)/C(C)=C/C=C/C(C)C(C(C)(O)/C=C(/C)Cc2csc(C3(C)OC3C)n2)OC1=O (centres undefined) [PATELLAZOLE A]
Activity (MC-38 [10]): 320 Zone units | Activity [11]: 370 Zone units | Activity (L1210 [12]): 240 Zone units | IC50 (KB): 0.01 mg/L (≈ 0.0113 µM)

CC(C)C[C@H]1NC(=O)[C@H]2N=C(O[C@@H]2C)[C@H]2CSSC[C@@H](NC(=O)c3csc1n3)C1=N[C@H](C(=O)N[C@H](CC(C)C)c3nc(cs3)C(=O)N2)[C@@H](C)O1 [ULITHIACYCLAMIDE]
IC50 (KB): 0.035 mg/L (≈ 0.0459 µM)

COC1/C(C)=C/C=C/C(C)C(C(C)(O)/C=C(/C)Cc2csc(C3(C)OC3C)n2)OC(=O)C(C)(C(=O)OC(C)C(C)O)CCC(C)CC(O)C(C)C(=O)C(C)/C=C\CC(C)C(O)C1O (centres undefined) [PATELLAZOLE B]
Activity (MC-38 [10]): 460 Zone units | Activity [11]: 460 Zone units | Activity (L1210 [12]): 300 Zone units | IC50 (KB): 0.0003 mg/L (≈ 0.000332 µM)

CC[C@H](C)[C@@H]1NC(=O)c2csc(n2)[C@@H](C(C)C)NC(=O)[C@H]2N=C(O[C@@H]2C)[C@H]([C@@H](C)CC)NC(=O)c2csc(n2)[C@@H](C(C)C)NC(=O)[C@@H]2COC1=N2 [PATELLAMIDE A]
Activity (MC-38 [4]): 160 Zone units | Activity (L1210 [5]): 150 Zone units | Activity [6]: 0 Zone units | IC50 (KB): 3 mg/L (≈ 4.04 µM)

O=c1[nH]cc(F)c(=O)[nH]1 [FLUOROURACIL]
Activity (L1210 [13]): 0 Zone units | Activity (MC-38 [14]): 800 Zone units

Nc1ccn([C@@H]2O[C@H](CO)[C@@H](O)[C@@H]2O)c(=O)n1 [CYTARABINE]
Activity (L1210 [15]): 550 Zone units | Activity [16]: 0 Zone units
